Measurements from patent publication US11220668B2, “Method for reducing the trisulfide level in proteins” (Merck Patent GmbH, priority 2016, dated 2022).

Test system: Recombinant CHO cells expressing an IgG1
Assay: Fed-batch process with SSC feed; relative quantification of trisulfide linked peptides in IgG by LC-MS peptide mapping
Format: cell-based
Conditions: for mean reduction of trisulfide, LC-HC linked peptides: SSC feed (15 mM in main feed) compared to control condition with cysteine in separate feed; for mean reduction of trisulfide, linkage between cysteine 259 and cysteine 319 in the heavy chain: SSC feed compared to control condition with cysteine in separate feed
Description: Recombinant CHO cells expressing an IgG1 were grown in fully chemically defined basal media (Cellvento® CHO 220) containing 1.5 mM cysteine. At days 3, 5, 7, 10, 14; feed(s) containing either cysteine or S-sulfocysteine were added.
For the control condition, the main feed included vitamins, trace elements and amino acid except cysteine because of the low stability of this amino acid. 150 mM of cysteine was dissolved in a separate feed at pH 11. The main feed was added at 3%, 6%, 6%, 6% and 6% (v/v) whereas cysteine was added at 0.3%, 0.6%, 0.6%, 0.6% and 0.6% on day 3, 5, 7, 10 and 14, respectively.
For the SSC condition, the main feed included the same vitamins, trace elements and amino acids and was further supplemented with 15 mM of S-sulfocysteine di-sodium salt. The main feed was added 3%, 6%, 6%, 6% and 6% (v/v) day 3, 5, 7, 10 and 14 respectively, resulting in the same amount of cysteine source when compared to the control condition. Glucose was monitored on a daily basis for both conditions and adjusted to 6 g/L using a 400 g/L solution.
The process was performed in 1.2 L bioreactors at 37° C., pH 7.0, 50% dissolved oxygen, agitation 140 rpm.
Samples were taken from the bioreactors for the trisulfide analysis on day 13 and day 18. After sampling, cell culture supernatant was centrifuged 5 min at 1500 rpm, the IgG concentration was quantified using an automatic turbidometric method (Cedex bioHT) and frozen for further processing.
IgG were purified from the frozen samples using protein A binding (Phytips method) and were eluted in 200 mM NAH2PO4; 140 mM NaCl and 96 mM Tris HCl and quantified again.
First, the free cysteines in the samples were alkylated by addition of N-ethylmaleiimide (10 mM solution in 0.1 M Na acetate buffer pH 5.0) for 30 min in the dark.
For digestion with Lys-C, 55 μL digestion buffer (8 M urea, 0.1 M Tris, pH 7) and 15 μL Lys-C enzyme (Promega, V1671) were added and the samples were incubated for 4 hours at 37° C. Subsequently, the samples were diluted to 1 M urea by addition of […] and were digested by addition of 12 μL trypsin over night at 37° C. The final antibody concentration was 50 mg/L. For the analysis of the disulfide and trisulfide bonds, the sample was treated with 10% formic acid (4.4 μL) to stop the digestion and analyzed by LC-MS.
The peptide mixture obtained was injected and separated using reversed phase HPLC (RSLC3000 nano LC, Thermo Scientific Dionex, Idstein, Germany). A nanoLC column (Acquity UPLC M-Class HSS T3, 1.8 μm, 75 μm×150 mm, Waters) with a cartridge (PM100, C18, 5 μm, 0.3×5 mm, Thermo Scientific Dionex, Idstein, Germany) was used for preconcentration and separation of the sample. Blank runs and column wash runs were performed within consecutive sample runs. […]

N[C@@H](CSS(=O)(=O)[O-])C(=O)[O-].[Na+].[Na+] [SSC, S-sulfocysteine di-sodium salt]
mean reduction of trisulfide, LC-HC linked peptides (day 13 of fed-batch): 93.3% | mean reduction of trisulfide, linkage between cysteine 259 and cysteine 319 in the heavy chain (day 13 of fed-batch): 46.7% | mean reduction of trisulfide, LC-HC linked peptides (day 18 of fed-batch): 92.4% | mean reduction of trisulfide, linkage between cysteine 259 and cysteine 319 in the heavy chain (day 18 of fed-batch): 25.9%
